Residues, ends and D or L forms follow the SMILES beside them.
Experiments:
Scrib PDZ-3 domain = biological target: T1, Scrib PDZ-3 domain (Homo sapiens, UniProt Q14160); test: In-solution fluorescence polarization binding of peptides to Scrib PDZ3; conditions: Kd value of 100 µM applied as binding cutoff, NB without definition
T1 construct: ROC curves of DomPep prediction for the three Scrib PDZ-1/2/3 domains
T1 sequence (Q14160 1004-1093 limits assumed): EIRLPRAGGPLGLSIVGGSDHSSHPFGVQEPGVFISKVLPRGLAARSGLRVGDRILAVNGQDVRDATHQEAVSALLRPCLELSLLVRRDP
Description: Because DomPep compared favorably to MDSM in identifying ligands for a PDZ domain included in the training set and to SPSSM in identifying binding peptides for an untrained PDZ domain, we next tested it whether it could reliably PPIs mediated by a PDZ domain on the genome scale. To this end, we employed three DomPep models to predict interactions between the Scrib PDZ domains and human proteins from the Swiss-Prot protein database. The three prediction models, which were generated for the mouse Scrib PDZ-1, PDZ-2 and PDZ-3 domains, were trained with 6, 5 and 30 positive peptide, respectively (Table S1). Searching the protein database with these models yielded a list of potential PDZ ligands. […] This experiment identified 14, 14, and 38 positives for the PDZ-1, -2, and -3 domains, respectively (Table 1). […] Importantly, we identified four peptides that were not included in the training set as physiological binders to the Scrib PDZ domains. The corresponding proteins, namely APC, LPP, VANGL2 and ZO2, were previously reported to interact with Scrib in vivo via its PDZ domains, [36], [37], [38], [39].
Figure 4 Application of DomPep to the prediction of PDZ-binding ligands. ROC curves of DomPep prediction for the three Scrib PDZ-1/2/3 domains using 56 peptides selected from the human protein database as the test set. The respective affinities of the three domains for the 56 peptides were measured by fluorescence polarization (Table 1).

Scrib PDZ-2 domain = biological target: T2, Scrib PDZ-2 domain (Homo sapiens, UniProt Q14160); test: In-solution fluorescence polarization binding of peptides to Scrib PDZ2; conditions: Kd value of 100 µM applied as binding cutoff, NB without definition, read-out: Kd (µM) PDZ2
T2 construct: ROC curves of DomPep prediction for the three Scrib PDZ-1/2/3 domains
T2 sequence (Q14160 862-950 limits assumed): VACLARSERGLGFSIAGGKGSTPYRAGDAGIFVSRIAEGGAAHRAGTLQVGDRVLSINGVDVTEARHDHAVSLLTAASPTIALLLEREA

Scrib PDZ-1 domain = biological target: T3, Scrib PDZ-1 domain (Homo sapiens, UniProt Q14160); test: In-solution fluorescence polarization binding of peptides to Scrib PDZ1; conditions: Kd value of 100 µM applied as binding cutoff, NB without definition, read-out: Kd (µM) PDZ1
T3 construct: ROC curves of DomPep prediction for the three Scrib PDZ-1/2/3 domains
T3 sequence (Q14160 728-815 limits assumed): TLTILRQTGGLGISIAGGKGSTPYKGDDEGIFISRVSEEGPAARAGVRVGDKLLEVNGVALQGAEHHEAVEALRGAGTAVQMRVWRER

Row | SMILES | Kd (Scrib PDZ-3 domain) [µM] | Kd (Scrib PDZ-2 domain) [µM] | Kd (Scrib PDZ-1 domain) [µM]
1 | CC(C)[C@H](NC(=O)[C@H](CO)NC(=O)[C@@H](NC(=O)[C@@H](NC(=O)CNC(=O)[C@H](CCC(=O)O)NC(=O)[C@H](C)NC(=O)[C@H](CCCNC(=N)N)NC(=O)[C@H](CCC(=O)O)NC(=O)[C@@H](N)CS)[C@@H](C)O)C(C)C)C(=O)O [MUSK] (H-CERAEGTVSV-OH) | 143 | > 100 | > 100
2 | CC[C@H](C)[C@H](NC(=O)[C@@H](NC(=O)[C@H](Cc1ccccc1)NC(=O)[C@H](CCC(=O)O)NC(=O)[C@@H]1CCCN1C(=O)[C@H](CC(N)=O)NC(=O)[C@@H](NC(=O)[C@@H](N)Cc1ccc(O)cc1)[C@@H](C)O)C(C)C)C(=O)N[C@@H](CC(N)=O)C(=O)N[C@H](C(=O)O)C(C)C [PRKCB1] (H-YTNPEFVINV-OH; N-terminus and C-terminus assumed) | > 100 | > 100 | > 100
3 | CC(C)C[C@H](NC(=O)[C@H](CS)NC(=O)[C@H](CC(=O)O)NC(=O)[C@@H](NC(=O)[C@H](CC(N)=O)NC(=O)[C@H](CCCNC(=N)N)NC(=O)[C@H](CC(C)C)NC(=O)CNC(=O)CNC(=O)[C@@H](N)CC(=O)O)C(C)C)C(=O)O [TBK1] (H-DGGLRNVDCL-OH) | 67.8 | > 100 | 77
4 | CC[C@H](C)[C@H](NC(=O)[C@@H](N)CC(N)=O)C(=O)NCC(=O)N[C@@H](CO)C(=O)N[C@@H](CCC(N)=O)C(=O)NCC(=O)N[C@@H](CO)C(=O)N[C@H](C(=O)N[C@@H](CC(=O)O)C(=O)N[C@@H](Cc1ccc(O)cc1)C(=O)O)[C@@H](C)O [TRIM21] (H-NIGSQGSTDY-OH) | 116 | > 100 | > 100
5 | CC(C)C[C@H](NC(=O)[C@H](CCCCN)NC(=O)[C@H](CO)NC(=O)[C@H](CC(N)=O)NC(=O)[C@@H](NC(=O)[C@H](CO)NC(=O)[C@H](Cc1c[nH]cn1)NC(=O)[C@@H]1CCCN1C(=O)[C@H](CC(C)C)NC(=O)[C@@H](N)CCC(=O)O)C(C)C)C(=O)O [ZADH2] (H-ELPHSVNSKL-OH; N-terminus and C-terminus assumed) | > 100 | > 100 | > 100

Other lines, results leading:

Row | Kd (Scrib PDZ-3 domain) [µM] | Kd (Scrib PDZ-2 domain) [µM] | Kd (Scrib PDZ-1 domain) [µM] | SMILES
6 | > 100 | > 100 | > 100 | CC(C)C[C@H](NC(=O)[C@@H](NC(=O)[C@H](CCCCN)NC(=O)[C@H](CC(C)C)NC(=O)[C@H](Cc1ccccc1)NC(=O)[C@H](CCCCN)NC(=O)[C@H](CCC(=O)O)NC(=O)[C@H](Cc1ccccc1)NC(=O)[C@H](CC(=O)O)NC(=O)[C@@H](N)CCC(N)=O)[C@@H](C)O)C(=O)O [MTERFD1] (H-QDFEKFLKTL-OH; N-terminus and C-terminus assumed)
7 | 177 | > 100 | > 100 | CC(C)[C@H](NC(=O)[C@H](CO)NC(=O)[C@H](CCCCN)NC(=O)[C@H](CCCCN)NC(=O)[C@H](CO)NC(=O)[C@H](CCCCN)NC(=O)[C@H](CCCCN)NC(=O)[C@H](CCCCN)NC(=O)[C@H](CCC(=O)O)NC(=O)[C@H](C)N)C(=O)O [PSMA8] (H-AEKKKSKKSV-OH)
8 | > 100 | > 100 | > 100 | CC(C)C[C@H](NC(=O)[C@H](CCCCN)NC(=O)[C@H](CO)NC(=O)[C@H](CCC(=O)O)NC(=O)[C@H](CO)NC(=O)[C@@H](NC(=O)[C@H](CCC(N)=O)NC(=O)[C@@H]1CCCN1C(=O)[C@H](CCCCN)NC(=O)[C@@H](N)C(C)C)C(C)C)C(=O)O [PTE1] (H-VKPQVSESKL-OH; N-terminus and C-terminus assumed)
9 | > 100 | > 100 | > 100 | CC[C@H](C)[C@H](NC(=O)[C@H](C)NC(=O)[C@H](CO)NC(=O)[C@H](CC(C)C)NC(=O)[C@H](CC(C)C)NC(=O)[C@@H](N)CCC(=O)O)C(=O)N[C@@H](CCC(=O)O)C(=O)N[C@@H](CCCCN)C(=O)N[C@@H](CC(C)C)C(=O)N[C@@H](CC(C)C)C(=O)O [UBXD1] (H-ELLSAIEKLL-OH; N-terminus and C-terminus assumed)

Source: article PMC3189207, “DomPep—A General Method for Predicting Modular Domain-Mediated Protein-Protein Interactions” (PLoS ONE, 2011)
